This assay can be described thus: Inhibition of ACK1 in mouse C8 cells assessed as decrease in cell viability after 20 to 24 hrs.

Among the data in BindingDB's records for doi:10.1016/j.bmcl.2012.08.020 (Amgen, 2012) are IC50 values, retold here.

As usually defined, the IC50 is the point on the concentration scale where inhibition reaches its midpoint.

In the case of `Cc1ccccc1-c1c(-c2ccc(OCCN3CCCC3)cc2)[nH]c2ncnc(NC[C@@H]3CCCO3)c12`, the IC50 was 0.16 µM. For the compound `Fc1ccccc1-c1c(-c2ccc(OCCN3CCCC3)cc2)[nH]c2ncnc(NC[C@@H]3CCCO3)c12`, the IC50 was 0.04 µM. `CN(C)CCOc1ccc(-c2[nH]c3ncnc(NCC4SCCS4)c3c2-c2ccccc2)cc1`: the IC50 was 0.005 µM. With `CN(C)CCOc1ccc(-c2oc3ncnc(NCC4SCCS4)c3c2-c2ccccc2)cc1` the figure was 0.01 µM. Turning to `c1ccc(-c2c(-c3ccc(OCCN4CCCC4)cc3)[nH]c3ncnc(NCC4SCCS4)c23)cc1`, the IC50 was found to be 0.01 µM. With `CN(C)CCOc1ccc(-c2oc3ncnc(NCC4CCCS4)c3c2-c2ccccc2)cc1` (stereo not given), the half-maximal inhibitory concentration (IC50) was determined as 3 µM. On to `CN(C)CCOc1ccc(-c2oc3ncnc(NCC4OCCO4)c3c2-c2ccccc2)cc1`, for which the IC50 is 2 µM. With `CN(C)CCOc1ccc(-c2oc3ncnc(NC[C@@H]4CCCCS4)c3c2-c2ccccc2)cc1`, the IC50 came to 7.16 µM. Consider `CN(C)CCOc1ccc(-c2oc3ncnc(NCC4SCCCS4)c3c2-c2ccccc2)cc1`, for which the IC50 is 0.55 µM. As for `CN(C)CCOc1ccc(-c2[nH]c3ncnc(NC[C@@H]4CC[C@H]4O)c3c2-c2ccccc2)cc1`, the IC50 worked out at 0.41 µM. For `CN(C)CCOc1ccc(-c2[nH]c3ncnc(NC[C@H]4CCC[C@H]4O)c3c2-c2ccccc2)cc1`, the IC50 was 0.46 µM.

Regarding `CO[C@@H]1CCC[C@@H]1CNc1ncnc2[nH]c(-c3ccc(OCCN(C)C)cc3)c(-c3ccccc3)c12`, the IC50 stood at 0.78 µM. On to `CO[C@@H]1CCC[C@H]1CNc1ncnc2[nH]c(-c3ccc(OCCN(C)C)cc3)c(-c3ccccc3)c12`, for which the half-maximal inhibitory concentration (IC50) worked out at 1.3 µM. The result for `c1cncc(-c2c(-c3ccc(OCCN4CCCC4)cc3)[nH]c3ncnc(NC[C@@H]4CCCO4)c23)c1` reads 0.39 µM; that for `COc1cccc(-c2c(-c3ccc(OCCN4CCCC4)cc3)[nH]c3ncnc(NC[C@@H]4CCCO4)c23)c1`, 0.16 µM; that for `c1ccc(-c2[nH]c3ncnc(NC[C@@H]4CCCO4)c3c2-c2ccccc2)cc1`, 0.62 µM. With `COc1ccc(-c2oc3ncnc(NC[C@@H]4CCCO4)c3c2-c2ccccc2)cc1` the figure was 0.55 µM.

As for `COc1ccc(-c2[nH]c3ncnc(NC[C@@H]4CCCO4)c3c2-c2ccccc2)cc1`, the IC50 was 0.35 µM. `CS(=O)(=O)c1ccc(-c2oc3ncnc(NC[C@@H]4CCCO4)c3c2-c2ccccc2)cc1`: the half-inhibitory concentration (IC50) worked out at 0.25 µM. Consider `CS(=O)(=O)c1ccc(-c2[nH]c3ncnc(NC[C@@H]4CCCO4)c3c2-c2ccccc2)cc1`, for which the IC50 amounted to 0.1 µM. As for `CN(C)S(=O)(=O)c1ccc(-c2[nH]c3ncnc(NC[C@@H]4CCCO4)c3c2-c2ccccc2)cc1`, the IC50 is 0.09 µM.

`CNS(=O)(=O)c1ccc(-c2oc3ncnc(NC[C@@H]4CCCO4)c3c2-c2ccccc2)cc1`: the IC50 came to 0.3 µM. Turning to `CNS(=O)(=O)c1ccc(-c2[nH]c3ncnc(NC[C@@H]4CCCO4)c3c2-c2ccccc2)cc1`, the IC50 worked out at 0.04 µM. `CN(C)CCOc1ccc(-c2[nH]c3ncnc(NC[C@@H]4CCCO4)c3c2-c2ccccc2)cc1`: the IC50 was 0.02 µM. As for `c1ccc(-c2c(-c3ccc(OCCN4CCOCC4)cc3)oc3ncnc(NC[C@@H]4CCCO4)c23)cc1`, the concentration for half-maximal inhibition (IC50) turned out to be 0.16 µM. Consider `c1ccc(-c2c(-c3ccc(OCCN4CCOCC4)cc3)[nH]c3ncnc(NC[C@@H]4CCCO4)c23)cc1`, for which the IC50 came out at 0.08 µM. `c1ccc(-c2c(-c3ccc(OCCN4CCCC4)cc3)[nH]c3ncnc(NC[C@@H]4CCCO4)c23)cc1`: the concentration for half-maximal inhibition (IC50) worked out at 0.06 µM. For the compound `O=C1CCCN1CCOc1ccc(-c2oc3ncnc(NC[C@@H]4CCCO4)c3c2-c2ccccc2)cc1`, the concentration for half-maximal inhibition (IC50) is 0.23 µM.

For the compound `O=C1CCCN1CCOc1ccc(-c2[nH]c3ncnc(NC[C@@H]4CCCO4)c3c2-c2ccccc2)cc1`, the IC50 turned out to be 0.02 µM. Consider `CN(C)C(=O)c1ccc(-c2oc3ncnc(NC[C@@H]4CCCO4)c3c2-c2ccccc2)cc1`, for which the IC50 was 0.18 µM. The result for `CN(C)C(=O)c1ccc(-c2[nH]c3ncnc(NC[C@@H]4CCCO4)c3c2-c2ccccc2)cc1` reads 0.02 µM; that for `CNC(=O)c1ccc(-c2[nH]c3ncnc(NC[C@@H]4CCCO4)c3c2-c2ccccc2)cc1`, 0.04 µM; that for `O=C(c1ccc(-c2oc3ncnc(NC[C@@H]4CCCO4)c3c2-c2ccccc2)cc1)N1CCOCC1`, 0.19 µM. The result for `O=C(c1ccc(-c2[nH]c3ncnc(NC[C@@H]4CCCO4)c3c2-c2ccccc2)cc1)N1CCOCC1` reads 0.02 µM; that for `CN(C)CCOc1ccc(-c2[nH]c3ncnc(NC[C@@H]4CCCO4)c3c2C2=CCCCC2)cc1`, 0.5 µM. Regarding `CN(C)CCOc1ccc(-c2[nH]c3ncnc(NC[C@@H]4CCCO4)c3c2C2=CCCC2)cc1`, the IC50 was 0.24 µM. In the case of `CO[C@@H]1CC[C@H]1CNc1ncnc2[nH]c(-c3ccc(OCCN(C)C)cc3)c(-c3ccccc3)c12`, the IC50 amounted to 0.42 µM. `CNC(=O)c1ccc(-c2oc3ncnc(NC[C@@H]4CCCO4)c3c2-c2ccccc2)cc1`: the IC50 is 2.05 µM. Take `CN(C)CCOc1ccc(-c2oc3ncnc(NC[C@@H]4CCCO4)c3c2-c2ccccc2)cc1` [(S)-6-(4-(2-(dimethylamino)ethoxy)phenyl)-5-phenyl-N-((tetrahydrofuran-2-yl)methyl)furo[2,3-d]pyrimidin-4-amine]: the IC50 was found to be 0.03 µM.

`c1ccc(-c2oc3nccc(NC[C@@H]4CCCO4)c3c2-c2ccccc2)cc1` [N-[(2S)-oxolan-2-ylmethyl]-2,3-diphenylfuro[2,3-b]pyridin-4-amine]: the IC50 is 5.6 µM.
